The nature of data set [1]: Stability test in liver microsomes (mouse). Particulars: mouse liver microsomes 0.5 mg/mL, 1 μM compound. It is filed as in vitro ADME. As to the method:
(§1) Both male CD-1 mouse pooled liver microsomes and male SD rat pooled liver microsomes were purchased from BioreclamationIVT Corporation, USA.
(§2) The test compound stock solution was diluted with an organic solvent (usually a mixture of acetonitrile, methanol and water with various ratios, depending on the solubility of the compound, if necessary, 1 N hydrochloric acid or 1 N sodium hydroxide would be added to facilitate solubilization) to the 0.1 mM (the final concentration of the compound in the reaction system was 1 μM) and the concentration percentage of the organic solvents in the incubation system no more than 1% (wherein the percentage of DMSO was required to be no more than 0.1%). An appropriate amount of 100 mM NADP, 500 mM G-6-P and 100 Unit/mL G-6-PDH were mixed and diluted with ultrapure water (the final system contains 1 mM NADP, 5 mM G-6-P and 1 Unit/mL G-6-PDH), pre-incubated in a 37° C. water bath for 10 minutes and then placed on ice for use as a NADPH regeneration solution. 20 mg/mL liver microsomes solution and 200 mM phosphate buffer were mixed, and diluted with ultrapure water to give a liver microsomes solution containing 2.5 mg/mL liver microsomes (the final concentration of the reaction system is 0.5 mg/mL) and 50 mM phosphate buffer. The diluted liver microsomes solution was mixed with 0.1 mM compound solution, a mixture of 100 mM EDTA, 300 mM MgCl2 solution, 200 mM phosphate buffer (the final system was 3 mM MgCl2, 1 mM EDTA and 50 mM phosphate buffer) and water in an appropriate volume was added. Finally, the NADPH regeneration solution was added, then the reaction solution was placed in a 37° C. water bath to start the reaction (the reaction time was 30 minutes), and the reaction was stopped by adding the ice-cold acetonitrile reaction stopping solution containing the internal standard. The 0-minute sample was not incubated in a 37° C. water bath, and its difference from the 30-minute sample further lies in that the ice-cold acetonitrile reaction stopping solution containing the internal standard was added first, and then the NADPH regeneration solution was added. The sample added with the reaction stopping internal standard solution was vortexed and mixed well, and then centrifuged at 4400 rpm for 10 minutes. The supernatant was taken and diluted ten times with 50% methanol for LC-MS/MS analysis.
(§3) LC-MS/MS was used to determine the concentration of the compound in the sample. The percentage of the remaining compound after 30 minutes of incubation comparing with that in the 0-minute sample was calculated using the peak area ratio of the compound to the internal standard as an indicator, to evaluate the metabolic stability of the compound.
(In general: Liver microsomes are a subcellular fraction often used to study metabolism.)

The test system of data set [2] is anti-IgD antibody-induced B cell activation in mice whole blood. The experiment in a line: In vivo efficacy of the inhibitory effect on BTK target: anti-IgD antibody-induced B cell activation in mice whole blood after oral dosing. Set-up: species or system mouse. Particulars: 5 mg/kg oral single dose, 16 h. As to the method: Objects: B cells in mice whole blood were induced and activated by the anti-IgD antibody, and the inhibitory effect of the compound of the present invention on B cell activation in vivo was studied, so as to determine the inhibitory effect of the compound of the present invention on the BTK target in vivo.
Methods: C57BL/6 mice (female, 18-20 g, purchased from Shanghai Lingchang Biotechnology Co., Ltd.) were grouped according to Table 1.
The animals of each group were administered, then were placed in CO2 for anesthesia at designated time points, blood samples were taken from […] via retro-orbital bleeding, and heparin was used for anticoagulation; 90 μL of whole blood was taken from mice of each group, and added to a 96 well culture plate, and anti-mouse IgD antibody (BIO-RAD, Cat #MCA4693) was added to each well to a final concentration of […] (respectively for each drug-treated group and anti-IgD antibody-inducted vehicle group); in addition, 90 μL of whole blood of mice in the vehicle group was taken and added to the 96-well culture plate, and PBS (phosphate buffer, GIBCO, Cat #C20012500BT) was added to each well to a final concentration of 0.01 μg/L (namely, the vehicle control group); Each group was mixed well and incubated in a 37° C./5% CO2 incubator for 4 hours. In addition, the blood of mice in the drug-treated group was centrifuged to separate plasma for blood concentration analysis.
B cell activation ratio=percentage of CD69^+CD19^+ double positive B cells/percentage of CD19^+ single positive B cells
Inhibition ratio=(percentage of B cell activation ratio in anti-IgD antibody-induced vehicle group−percentage of B cell activation ratio in drug-treated group)/(percentage of B cell activation ratio in anti-IgD antibody−induced vehicle group-percentage of B cell activation ratio in vehicle control group)×100%
All data are represented by mean±standard error. For the comparison between each drug-treated group and the anti-IgD antibody-induced vehicle group, p value was calculated by Graphpad Prism using one-way ANOVA analysis of variance and Dunnett's test, and for the comparison between each drug-treated group, p value was calculated by using unpaired t test.

A short description of data set [3]: Stability test in liver microsomes (rat). It is filed as in vitro ADME. Particulars: rat liver microsomes 0.5 mg/mL, 1 μM compound. How it is done:
as §1, §2, §3

Data set [4] concerns idiopathic thrombocytopenic purpura induced by anti-mouse CD41 antibodies. In words: Idiopathic thrombocytopenic purpura induced by anti-CD41 antibody in mice, level of platelets. The data set is classed as in vivo. As to the method: Male C57BL/6 mice were purchased from Shanghai Lingchang Biotechnology Co., Ltd. (certificate number 20180003011079, initial body weight of 18-20 grams), and were randomly grouped according to Table 4, with 8 mice in each group. […] When modeling, each mouse was intraperitoneally injected with 200 μL of PBS solution containing […] of anti-mouse CD41 antibodies (BD, Cat #: 553487, Lot #: 7026765).
Eight hours and twenty-four hours after modeling, the whole blood was collected and placed in a centrifuge tube coated with 10% citrate-phosphate-dextrose-adenine (CPDA), and the level of platelets (PLT) in the whole blood was measured by an XT-2000i (SYSMEX) automatic blood analyzer (Shanghai Laboratory Animal Research Centre Sino-British SIPPR/B & K Lab Animal Ltd).
The average level of platelets in peripheral blood was analyzed with Graphpad statistical software by one way ANOVA followed by Fisher LSD multiple comparison test, and the p value was calculated, wherein *p<0.05 indicated a statistically significant difference compared with the vehicle control group, **p<0.01 indicated a statistically extremely significant difference compared with the vehicle control group, and ##p<0.01 indicated a statistically extremely significant difference compared with the normal group.
RR %=(PLTtreatment−PLTmodel)/(PLTnaive−PLTmodel)×100%.

Turning to `C[C@H]1CN(C2COC2)C[C@H](C)N1c1ccc(Nc2cc(-c3ccnc(-n4ccn5c6c(cc5c4=O)CC(C)(C)C6)c3CO)cn(C)c2=O)nc1` [Compound 1, 2-(5-((5-((2S,6S)-2,6-dimethyl-4-(oxetan-3-yl)piperazin-1-yl)pyridin-2-yl)amino)-3′-(hydroxymethyl)-1-methyl-6-oxo-1,6-dihydro-[3,4′-bipyridin]-2′-yl)-7,7-dimethyl-7,8-dihydro-2H-cyclopenta[4,5]pyrrolo[1,2-a]pyrazin-1(6H)-one], the “MLM, percentage of the remaining compound after 30 minutes of incubation” value in data set [1] was found to be 91.6%. For the same compound, the “Inhibition ratio (%) on B cell activation” value in data set [2] and in data set [2] (listed as compound 1) was 60% in each case. In addition, the “B cell activation ratio (the population of activated B cells in total B cells)” value in data set [2] (mean ± standard error) worked out at 16.0 ± 3.9. Also, in data set [3], the “RLM, percentage of the remaining compound after 30 minutes of incubation” value was found to be 87.9%. For the same compound, the “recovery rate of platelets” value in data set [4] (0.004 mg/kg oral single dose, 8 hours after modeling) turned out to be 25%; in data set [4] (0.004 mg/kg oral single dose, 24 hours after modeling), 5%; in data set [4] (0.04 mg/kg oral single dose, 8 hours after modeling), 37%; in data set [4] (0.04 mg/kg oral single dose, 24 hours after modeling) it was 21%; in data set [4] (0.4 mg/kg oral single dose, 8 hours after modeling) it was 44%; in data set [4] (0.4 mg/kg oral single dose, 24 hours after modeling) it was 29%. The “recovery rate of platelets” value stood at 51% in data set [4] (4 mg/kg oral single dose, 8 hours after modeling) and 29% in data set [4] (4 mg/kg oral single dose, 24 hours after modeling). In data set [4] (single oral dose, platelets 8 hours after modeling), the minimum effective dose is reported as 0.04 mg/kg.

The values are drawn from patent US20230382916A1, “HETEROARYL HETEROCYCLIC COMPOUNDS AND USES THEREOF” (HUTCHISON MEDIPHARMA LIMITED, priority 2020, published 2023).
